In patent EP0738149B1 (priority 1994, dated 1995):
Where a name gives a salt, the structure may show the parent alone. Read-outs that look alike come from different tables or passages of the source.

Assays:
mice [1] = assay: Neurotoxicity in mice (rotorod ataxia test), i.p.
Protocol: (§1) Neurotoxicity of the claimed agents was also assessed in mice (i.p. administration) by the rotorod ataxia test and/or in rats (p.o. administration) by positional sense test and gait stance test. […] The term quantitating the neurotoxicity is the medial neurological toxic dose (TD50), was determined in the above tests.

mice [2] = settings: for MICE scMet ED50: i.p.; for ED50: Mus musculus, ip
rats [3] = assay: Maximal electroshock (MES) model in rats, p.o.;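 as to all read-outs here: rat MES model gauging antiepileptic efficacy versus generalized and partial seizures after oral dosing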; assay type: in vivo; settings: for ED50: Rattus norvegicus, po
rats [4] = assay: Neurotoxicity in rats (positional sense test and gait stance test), p.o.; settings: rats, p.o.
Protocol: as §1

mice [5] = assay: Maximal electroshock (MES) model in mice, i.p.;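 as to all read-outs here: Electroshock-induced convulsion model serving to demonstrate antiepileptic efficacy against generalized and partial seizures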; assay type: in vivo; settings: for MICE MES ED50: i.p.; for MICE MES ED50 / ED50: Table 15; for ED50: Mus musculus, ip; for activity in the MES model in mice: statement in words
[6] = Neurotoxicity in mice (rotorod ataxia test), i.p.; settings: mouse, in vivo, ip
Protocol: as §1

in vivo = settings: rat, in vivo, po
Protocol: as §1

rats [7] = settings: Rattus norvegicus, po, read-out: RATS scMet ED50
rats [8] = assay: Closed head injury in rats: motor function (Neurological Severity Status), Experiments 4A-4E
Male mongolian gerbils = assay: Global brain ischemia in gerbils (CA1 pyramidal neurons); assay type: in vivo; settings: 3 injections, fraction of hippocampi protected from ischemia, 14 days post-ischemia
Protocol: Each artery was clamped for 5 minutes with aneurysm clips to produce global brain ischemia. The anesthesia was discontinued upon clamping. After 5 minutes the clamps were removed and the wound closed with skin clips.
For treatment, the test compound or vehicle were injected intra-peritoneally (ip) in a volume of 50 microliters of solvent per 10g body weight. The first injection was given two minutes after clamp removal, and thereafter daily for the next 2 post-operative days (total of 3 injections).
Seven groups each of 4-8 animals were compared: • I. Control; (sham- or unoperated and saline treated), • II. Vehicle treated, unoperated (when solvent is other than saline), • III. Ischemia - untreated or saline treated), • IV. Ischemia - vehicle treated (when solvent is other than saline), • V. Ischemia - Test compound treated, one sub-group per concentration tested, • VI. Ischemia and pentobarbital (40 mg/kg) as positive control).
Analysis of neuronal damage was performed 14 days post-ischemia by counting pyramidal neurons throughout the CA1 layer of the anterior hippocampus in […] thick (paraffin) coronal brain sections stained with hematoxylin and erosin.
Percent Protection values represent the fraction of hippocampi protected from ischemia in a group of animals treated with the stated dose of compound.

male ICR albino mice = assay: Hypobaric hypoxia survival time in mice; assay type: in vivo
Protocol: Dessicator B was disconnected and allowed to equilibrate with room air whilst dessicator A was evacuated to a pressure of 100mmHg. […] The survival time from the moment of induction of hypoxia to the time of cessation of respiration was recorded for each mouse for a maximum of 15 minutes after which time room air was reintroduced to dessicator B. Survivors were monitored for signs of lethargy or vitality.
Effect of drug treatment was assessed as the percent of the survival time of the drug treated group with respect to the saline injected or vehicle injected control group. Control groups were run twice, before and after each experimental group and consisted of 12-16 mice in groups of 4 mice. Each experimental group always consisted of 4 mice to ensure a constant residual volume of oxygen in all tests. The effect of each dose of test drug was determined in duplicate i.e. two groups of 4 mice.
All drugs were administered intra-peritoneally at the dose indicated one hour prior to exposure to hypoxia.

[9] = test system: mechanically dissociated neonatal rat cerebellum; assay: Reversal of NMDA induced cell death in cultures of neonatal rat cerebellum; assay type: cell-based; settings: separate experiment, Maximum Protection possible 90%
Protocol: The cerebellum was aseptically dissociated from 6 or 7-day old rat pups and placed in a 15ml sterile plastic conical tube containing 3ml of Dulbecco's modified Eagle's medium (DMEM) with a high glucose concentration ([…]) and 2mM (v/v) L-glutamine and an antibiotic antimitotic mixture. The cerebella were then dissociated after 20-25 passages through a sterile 13 gauge, 10cm long stainless steel needle attached to a 5ml syringe with an inserted 45 micrometer pore nylon sieve. The dissociated cells were centrifuged at 200g for 5 minutes. The supernatant was discarded and the cells resuspended in medium enriched with 15% (v/v) heat inactivated fetal calf serum. Cell viability was determined by the tryptan blue exclusion test.
Cells were plated at a density of 200/mm^2 on poly-L-lysine coated surfaces. Poly-L-lysine coated glass coverslips were prepared at least one hour in advance of plating by immersing sterile coverslips in sterile distilled water solution containing 15 microgram/ml poly-L-lysine, and washing in sterile water just prior to use. The plated cells were covered with enriched medium and incubated at 37°C in an atmosphere of 5% CO2 in air and 97% humidity. After three days in culture, the media was replaced with media containing the desired test compound. Each test compound was tested in duplicate. Toxic-dose response was determined for each compound.
Four groups were run in each set of experiments; • I. Control, consisting of enriched media alone, • II. N-methyl-D-aspartate (NMDA, 1mM for 3 hours) as the cytotoxic challenge, • III. Test compound plus NMDA, and • IV. Positive control, spermine(0.01 micromoles) plus NMDA.
Nerve cell survival was evaluated by phase contrast microscopy and tryptan blue staining after 24 hours.
Surviving cells in culture are measured relative to control (100%), as described above. Percent protection is the Cell Survival for the test compound minus the NMDA effect. Thus, maximal protection is 100% minus 30% NMDA effect i.e. […]. The Effective Protection was calculated as the percent of the Percent Protection (X) divided by the maximal protection value (e.g. X x 100/70).

[10] = read-out: MICE scMet ED50, mice, i.p., Table 16
[11] = read-out: RATS MES 50, rats, p.o., Table 15
[12] = rats, p.o., Table 15, read-out: RATS MES 50
[13] = Exp 4A, 0.1mg/kg i.p. at 0,4,8 and 12 hours post-trauma
[14] = Exp 4B, 0.1mg/kg once a day for 14 days

Compound: Cl.NC(=O)CN[C@@H]1CCc2ccccc21 [D, (R)-Indanylglycinamide-HCl salt]
- MICE TD50 (mice [1]; mice, i.p., Table 15): 127 mg/kg
- MICE TD50 (mice [1]; mice, i.p., Table 16): 127 mg/kg
- MICE scMet ED50 (mice [2]; Table 16): >130 mg/kg
- RATS MES 50 (rats [3]; rats, p.o., Table 15): 105 mg/kg
- RATS TD50 (rats [4]; Table 15): >180 mg/kg
- RATS TD50 (rats [4]; Table 16): >180 mg/kg
- MICE MES ED50 (mice [5]): 83 mg/kg

Compound: NC(=O)CNC1CCc2ccccc21 (racemic) [Example 3, (rac)-N-(2-Acetamido)-1-aminoindan.HCl]
- TD50 ([6]; MICE TD50, mice, Table 15): 127 mg/kg
- TD50 ([6]; MICE TD50, mice, Table 16): 127 mg/kg
- MICE TD50 (mice [1]; mice, i.p., Table 15): >100 mg/kg
- MICE TD50 (mice [1]; mice, i.p., Table 16): 126 mg/kg
- MICE scMet ED50 (mice [2]; Table 16): 36 mg/kg
- MICE scMet ED50 (mice [2]; Table 16, listed as 3*): >130 mg/kg
- RATS MES 50 (rats [3]; rats, p.o., Table 15): <50 mg/kg
- TD50 (in vivo): > 50 mg/kg
- ED50 (mice [5]): 83 mg/kg
- MICE MES ED50 (mice [5]): <100 mg/kg

Compound: O=C(NC1CCc2ccccc21)c1ccccc1 (racemic) [Example 46, (rac)-N-Benzoyl-1-aminoindan]
- TD50 ([6]; MICE TD50): 500 mg/kg
- MICE TD50 (mice [1]; mouse, in vivo, ip): >500 mg/kg
- ED50 (mice [2]; [10]): > 500 mg/kg
- ED50 (mice [5]): 82 mg/kg

Compound: C#CCN[C@@H]1CCc2ccccc21.Cl [E, (R)-N-propargyl-1-aminoindan HCl salt]
- ED50 (rats [3]; [11]): < 50 mg/kg
- ED50 (mice [5]): 79 mg/kg
- ED50 (rats [7]): > 154 mg/kg

Compound: C#CCN[C@H]1CCc2ccccc21.CS(=O)(=O)O [H, (S)-N-propargyl-1-aminoindan mesylate salt]
- ED50 (mice [2]; read-out: MICE scMet ED50): > 200 mg/kg
- ED50 (rats [3]; [11]): ≤ 50 mg/kg
- ED50 (mice [5]): ≤ 50 mg/kg

Compound: C#CCNC1CCc2ccc(F)cc21 (centres unmarked) [L, 6-fluoro-N-propargyl-1-aminoindan]
- TD50 ([6]; MICE TD50): 188 mg/kg
- MICE TD50 (mice [1]; mouse, in vivo, ip): 188 mg/kg
- ED50 (rats [3]; [12]): 50 mg/kg
- TD50 (in vivo): > 50 mg/kg
- RATS TD50 (rats [4]; Table 16): >50 mg/kg
- ED50 (mice [5]): 74 mg/kg
- activity in the MES model in mice (mice [5]): showed activity
- ED50 (rats [7]): > 300 mg/kg

Compound: NC1CCc2ccccc21 (racemic) [A, 1-aminoindan]
- TD50 [6]: > 100 mg/kg
- MICE TD50 (mice [1]; mice, i.p., Table 16): >100 mg/kg
- ED50 (rats [3]; read-out: RATS MES 50): 36 mg/kg
- TD50 (in vivo): > 168 mg/kg
- RATS TD50 (rats [4]; Table 16): >168 mg/kg

Compound: N[C@H]1CCc2ccccc21 [SAI, (S)-1-aminoindan]
- TD50 [6]: 25 mg/kg
- MICE TD50 (mice [1]; mice, i.p., Table 16): 25 mg/kg
- NSS 1hr (rats [8]; [13]): 16.4
- NSS 24hr (rats [8]; [13]): 10.8
- ΔNSS (rats [8]; Exp 4A, 0.1mg/kg i.p. at 0,4,8 and 12 hours post-trauma, change 1 hour to 24 hours): 5.6±0.5
- NSS at 1hr (rats [8]; [14]): 16.6±0.3
- ΔNSS at 24hr (rats [8]; [14]): 5.5±0.4
- ΔNSS at 48hr (rats [8]; [14]): 6.8±2.7
- ΔNSS at 7d (rats [8]; [14]): 8.3±1.0
- ΔNSS at 14d (rats [8]; [14]): 9.5±1.0
- ED50 (rats [3]; read-out: RATS MES 50): 17 mg/kg
- PERCENT PROTECTION (Male mongolian gerbils; 0.1 mg/kg ip): 0%
- PERCENT PROTECTION (Male mongolian gerbils; 1.0 mg/kg ip): 50.0%
- PERCENT PROTECTION (Male mongolian gerbils; 10.0 mg/kg ip): 75.0%
- TD50 (in vivo): > 500 mg/kg
- RATS TD50 (rats [4]; Table 16): >500 mg/kg
- PROTECTION % OF RESPECTIVE CONTROL (male ICR albino mice; 50 mg/kg ip one hour prior to hypoxia): 174±39 % OF RESPECTIVE CONTROL
- PROTECTION % OF RESPECTIVE CONTROL (male ICR albino mice; 100 mg/kg ip one hour prior to hypoxia): 404±244 % OF RESPECTIVE CONTROL
- PROTECTION % OF RESPECTIVE CONTROL (male ICR albino mice; dose cell empty (line below 50 mg/kg ip)): 264±66 % OF RESPECTIVE CONTROL
- EFFECTIVE PROTECTION ([9]; 0.01 µM): 43%
- EFFECTIVE PROTECTION ([9]; 0.05 µM): 57%

Compound: NC1CCc2ccc(F)cc21 (centres unmarked) [I, 6-fluoro-1-aminoindan]
- TD50 ([6]; MICE TD50): 58 mg/kg
- MICE TD50 (mice [1]; mouse, in vivo, ip): 58 mg/kg
- ED50 (rats [3]; [12]): < 50 mg/kg
- TD50 (in vivo): > 50 mg/kg
- RATS TD50 (rats [4]; Table 16): >50 mg/kg
- ED50 (mice [5]): 66 mg/kg
- ED50 (rats [7]): > 100 mg/kg

Compound: NC(=O)CNC1CCc2ccc(F)cc21 (racemic) [Example 5, (rac)-6-Fluoro-N-(2-acetamido)-1-aminoindan.HCl]
- TD50 ([6]; MICE TD50, mice, Table 16): 138 mg/kg
- MICE TD50 (mice [1]; mice, i.p., Table 15): >300 mg/kg
- ED50 (mice [2]; [10]): > 200 mg/kg
- ED50 (mice [5]): < 100 mg/kg
- MICE MES ED50 (mice [5]): 58 mg/kg
- activity in the MES model in mice (mice [5]): showed activity

Compound: NC(=O)CN[C@@H]1CCc2ccccc21 [Example 1, (R)-N-(2-Aeetamido)-1-aminoindan.HCl]
- TD50 ([6]; MICE TD50, mice, Table 15): 198 mg/kg
- TD50 ([6]; MICE TD50, mice, Table 16): 198 mg/kg
- ED50 (mice [2]; read-out: MICE scMet ED50): > 200 mg/kg
- RATS MES 50 (rats [3]; rats, p.o., Table 15): 50 mg/kg
- TD50 (in vivo): > 50 mg/kg
- RATS TD50 (rats [4]; Table 16): >50 mg/kg
- ED50 (mice [5]): 77 mg/kg

Compound: COc1ccc2c(c1)C(NC(C)=O)CC2 (racemic) [Example 26, (rac) 6-methoxy-N-acetyl-1-aminoindan]
- ED50 (rats [3]; [12]): 40 mg/kg
- TD50 (in vivo): > 500 mg/kg
- RATS TD50 (rats [4]; Table 16): >500 mg/kg
- ED50 (rats [7]): > 250 mg/kg

Compound: O=CNC1CCc2ccccc21 (racemic) [Example 8, (rac)-N-Formyl-1-aminoindan]
- ED50 (rats [3]; [12]): 24 mg/kg
- TD50 (in vivo): > 500 mg/kg
- RATS TD50 (rats [4]; Table 16): >500 mg/kg
- ED50 (rats [7]): > 250 mg/kg
